This passage reports IC50 results from patent publication US20250304549A1, “HYDROXYAMIDE DERIVATIVE AND USE THEREOF” (SICHUAN HUIYU PHARMACEUTICAL CO., LTD., priority 2022, published 2025).

Test [1] deals with pan-HDAC. Kind of test: In vitro enzyme inhibition assay - HDAC (HDAC-Glo I/II), pan-HDAC. The format is biochemical. The method, then:
2. In Vitro Enzyme Inhibition Assay—HDAC
The effect of the compound on the enzymatic activity of pan-HDAC and two isoforms (HDAC1 and HDAC8) was examined using the HDAC-Glo I/II Assay and Screening System assay to assess the level of inhibition of HDAC protease activity and selectivity in each isoform. The proteins and detection reagents were from the HDAC-Glo™ I/II Assay and Screening System (Promega). A 1 mM stock solution of the compound was prepared in DMSO and diluted in a 5-fold gradient to create a series of 8 concentrations, and a specific volume of the highest concentration was diluted 25 times with HDAC Buffer to obtain 4× working solution of the compound. […] The 384-well plate was then read on a multifunctional microplate reader, with the Luminescence channel selected to record Luminescence values (RLU). The inhibition rate was calculated using the following formula: […]
(§1) Note: ‘Negative’ refers to the group without the inhibitor; ‘Blank’ refers to the group without the enzyme.
(§2) The IC50 value was calculated by fitting the inhibition rate by GraphPad Prism software, employing log (inhibitor) vs. response-Variable Slope (four parameters) model.

For test [2], the target named is LSD1 (Homo sapiens (Human), UniProt O60341). Description: In vitro enzyme inhibition assay - LSD1 (HTRF). The format is biochemical. The method, then: 1. In Vitro Enzyme Inhibition Assay—LSD1
Initially, a master solution of 90 μM test compound (dissolved in DMSO) was prepared and sequentially diluted with DMSO in a 5-fold concentration gradient to yield a total of 9 concentrations of the compound working solution 1 (90×). Subsequently these 9 concentrations of working solution 1 were sequentially diluted by a 30-fold concentration gradient, i.e., 2 μL of working solution 1 was aspirated and added to 58 μL of Buffer, mixed on a vortex mixer with sufficient shaking to yield 9 concentrations of the screening test compound working solution 2 (3×). […] The mixture was incubated at room temperature for 15 minutes. […] Afterward, 2 μL of a termination solution (containing 5.4 mM 2-PCPA) was added to each well, mixed evenly, and incubated for another 15 minutes. Finally 4 μL of a pre-mixed antibody solution of Eu-anti H3K4 (PerkinElmer, TRF0404-D) and allophycocyanin (Prozyme, PJ27S) (1:1) was added to each well, mixed evenly, and incubated for 60 minutes. […] The inhibition rate was calculated through the following formula: […]
as §1, §2
(In general: In TR-FRET formats the signal depends on donor and acceptor labels being close together.)

Test [3] has as its system NCI-H1417 cells. Kind of test: In vitro cell inhibition assay - H1417 cell proliferation (CellTiter-Glo). Format: cell-based. The following applies: Homo sapiens, NCI-H1417, H1417 small cell lung cancer cell proliferation. The method, then:
3. In Vitro Cell Inhibition Assay—H1417 Cell Proliferation
The inhibitory effect of the compounds on cell proliferation was assessed by detecting the number of viable cells using the CellTiter-Glo® reagent. […] The compounds were sequentially diluted in a 5-fold concentration gradient with DMSO to obtain 8 different concentrations o. These were diluted with BEGM (containing 10% FBS) cell culture medium to obtain the compound working solution (2×), which was added to the cell supernatant at 100 μL per well. The incubation continued for 7 days at 37° C., 5% CO2. The plate was then removed and equilibrated to room temperature (25° C.) along with the CellTiter-Glo® mixing reagent for 10-30 minutes. After centrifugation, 100 μL of the culture medium was carefully aspirated from each well, and 85 μL of CellTiter-Glo® reagent was added. The cells were thoroughly mixed with the CellTiter-Glo® mixing reagent using a microplate shaker for 2 min. and then incubated at room temperature for 10 min. The 96-well plate was subsequently placed on a multifunctional microplate reader to record the Luminescence values (RLU). • The inhibition rate was calculated using the following formula: […]
(§3) Note: ‘Negative’ refers to the group without inhibitors; ‘Blank’ refers to the group without cells.
(§4) The IC50 value was determined by fitting the inhibition rate by GraphPad Prism software.

Test [4] deals with NCI-H69 cells. Description: In vitro cell inhibition assay - NCI-H69 cell proliferation (CellTiter-Glo). Format: cell-based. The following applies: Homo sapiens, NCI-H69, H69 small cell lung cancer cell proliferation. As to the method: 4. In Vitro Cell Inhibition Assay—NCI-H69 Cell Proliferation
The inhibitory effect of the compounds on cell proliferation was assessed by detecting the number of viable cells using the CellTiter-Glo® reagent. NCI-H69 cells in the logarithmic growth phase were collected and inoculated into transparent bottom 96-well plates at a density 1×10^3 cells per well with 100 μL medium, and incubated at 37° C., 5% CO2 overnight. The compounds were sequentially diluted in a 5-fold concentration gradient with DMSO to obtain 8 different concentrations These were then diluted with RPMI-640 (containing 20% FBS) cell culture medium to obtain the compounds working solution (2×), which was added to the cell supernatant at 100 μL per well. The incubation continued for 7 days at 37° C., 5% CO2. The plate was then removed and equilibrated to room temperature (25° C.) along with the CellTiter-Glo® mixing reagent for 10-30 minutes. After centrifugation at 1200 rpm for 5 minutes, 120 μL of the culture medium was carefully aspirated from each well, and 60 μL of CellTiter-Glo® reagent was added. The cells were thoroughly mixed with the CellTiter-Glo® mixing reagent using a microplate shaker for 2 min. and then incubated at room temperature for 10 min. The 96-well plate was subsequently placed on a multifunctional microplate reader to record the Luminescence values (RLU).
The inhibition rate was calculated using the following formula: […]
as §3, §4

Counter-ions that a name gives are not always drawn.

Usually IC50 stands for the concentration at which inhibition is half-maximal. A higher IC50 goes with weaker potency in that assay. For `CC(C)(O)Cn1nnc2cc(-c3cnc(N4CCC(NCc5ccc(/C=C/C(=O)NO)cn5)CC4)c(C#N)c3-c3ccc(C#N)c(F)c3)ccc21` [Example 224, (E)-3-(6-(((1-(3-Cyano-4-(4-cyano-3-fluorophenyl)-5-(1-(2-hydroxy-2-methylpropyl)-1H-benzo[d][1,2,3]triazol-5-yl)pyridin-2-yl)piperidin-4-yl)amino)methyl)pyridin-3-yl)-N-hydroxyacrylamide formate], the IC50 in test [1] stood at 10.6 nM; in test [2], 0.19 nM; in test [3], 24.5 nM; in test [4], 305 nM.
For `CC(C)(O)Cn1nnc2cc(-c3cnc(N4CCC(NCc5ccc(/C=C/C(=O)NO)nc5)CC4)c(C#N)c3-c3ccc(C#N)c(F)c3)ccc21` [Example 225, (E)-3-(5-(((1-(3-Cyano-4-(4-cyano-3-fluorophenyl)-5-(1-(2-hydroxy-2-methylpropyl)-1H-benzo[d][1,2,3]triazol-5-yl)pyridin-2-yl)piperidin-4-yl)amino)methyl)pyridin-2-)-N-hydroxyacrylamide formate], in that order: 3.43 nM, 0.35 nM, 8.51 nM and 78 nM.
For `CC(C)(O)Cn1nnc2cc(-c3cnc(N4CCC(NCc5ccc(/C=C/C(=O)NO)cc5)CC4)c(C#N)c3-c3ccc(C#N)c(F)c3)c(F)c(F)c21` [Example 226, (E)-3-(4-(((1-(3-Cyano-4-(4-cyano-3-fluorophenyl)-5-(6,7-difluoro-1-(2-hydroxy-2-methylpropyl)-1H-benzo[d][1,2,3]triazol-5-yl)pyridin-2-yl)piperidin-4-yl)amino)methyl)phenyl-N-hydroxyacrylamide formate], in that order: 24.8 nM, 0.02 nM, 2.31 nM and 99.2 nM.
For `COc1ccc(-c2cnc(N3CCC(CNCc4ccc(/C=C/C(=O)NO)cc4)C3)c(C#N)c2-c2ccc(C#N)c(F)c2)cc1O` (stereo not drawn) [Example 228, (E)-3-(4-((((1-(3-Cyano-4-(4-cyano-3-fluorophenyl)-5-(3-hydroxy-4-methoxyphenyl)pyridin-2-yl)pyrrolidin-3-yl)methyl)amino)methyl)phenyl)-N-hydroxyacrylamide hydrochloride], in that order: 24.3 nM, 0.9 nM, 91.7 nM and 84.8 nM.
Regarding `CC1(NCc2ccc(/C=C/C(=O)NO)cc2)CCN(c2ncc(-c3ccc(OCC4(O)CC4)c(O)c3)c(-c3ccc(C#N)c(F)c3)c2C#N)CC1` [Example 229, (E)-3-(4-(1-(3-cyano-4-(4-cyano-3-fluorophenyl)-5-(3-hydroxy-4-((1-hydroxycyclopropyl)methoxy)phenyl)pyridin-2-yl)-4-methylpiperidin-4-yl)amino)methyl) phenyl)-N-hydroxyacrylamide formate], the IC50 was 30.8 nM in test [1], 0.88 nM in test [2], 9.36 nM in test [3] and 529 nM in test [4].
For `COc1ccc(-c2cnc(N3CCC(NCc4ncc(/C=C/C(=O)NO)cc4F)CC3)c(C#N)c2-c2ccc(C#N)c(F)c2)cc1O` [Example 230, (E)-3-(6-(((1-(3-Cyano-4-(4-cyano-3-fluorophenyl)-5-(3-hydroxy-4-methoxyphenyl)pyridin-2-yl)piperidin-4-yl)amino)methyl)-5-fluoropyridin-3-yl)-N-hydroxyacrylamide formate], in that order: 10.3 nM, 1.45 nM, 4.67 nM and 77 nM.
For `CC(NC1CCN(c2ncc(-c3ccc(OCC(C)(C)O)c(O)c3)c(-c3ccc(C#N)c(F)c3)c2C#N)CC1)c1ccc(/C=C/C(=O)NO)cc1` (stereo not drawn) [Example 235, (E)-3-(4-(1-((1-(3-Cyano-4-(4-cyano-3-fluorophenyl)-5-(3-hydroxy-4-(2-hydroxy-2-methylpropoxy)phenyl)pyridin-2-yl)piperidin-4-yl)amino)ethyl)phenyl)-N-hydroxyacrylamide formate], in that order: 8.01 nM, 2.38 nM, 2.35 nM and 19.2 nM.
For `Cc1noc2cc(-c3cnc(N4CCC(NCc5ccc(/C=C/C(=O)NO)cn5)CC4)c(C#N)c3-c3ccc(C#N)c(F)c3)c(F)cc12` [Example 236, (E)-3-(6-(((1-(3-Cyano-4-(4-cyano-3-fluorophenyl)-5-(5-fluoro-3-methylbenzo[d]isoxazol-6-yl)pyridin-2-yl)piperidin-4-yl)amino)methyl)pyridin-3-yl)-N-hydroxyacrylamide formate], in that order: 37 nM, 0.59 nM, 6.02 nM and 410 nM.
In the case of `N#Cc1ccc(-c2c(-c3ccc(Cl)c(O)c3)cnc(N3CCC(NCc4ccc(/C=C/C(=O)NO)cn4)CC3)c2C#N)cc1F` [Example 239, (E)-3-(6-(((1-(5-(4-Chloro-3-hydroxyphenyl)-3-cyano-4-(4-cyano-3-fluorophenyl)pyridin-2-yl)piperidin-4-yl)amino)methyl)pyridin-3-yl)-N-hydroxyacrylamide formate], the IC50 amounted to 10.2 nM in test [1], 2.36 nM in test [2], 11.6 nM in test [3] and 25.2 nM in test [4].
For `COc1ccc(-c2cnc(N3CCC(NCc4ccc(/C=C/C(=O)NO)cc4)C(C)C3)c(C#N)c2-c2ccc(C#N)c(F)c2)cc1O` (stereo not drawn) [Example 242, (E)-3-(4-(((1-(3-Cyano-4-(4-cyano-3-fluorophenyl)-5-(3-hydroxy-4-methoxyphenyl)pyridin-2-yl)-3-methylpiperidin-4-yl)amino)methyl)-N-hydroxyacrylamide formate], in that order: 16 nM, 2.44 nM, 18.4 nM and 17.8 nM.
On to `N#Cc1ccc(-c2c(-c3ccc(N4CCOCC4)c(O)c3)cnc(N3CCC(NCc4ccc(/C=C/C(=O)NO)cn4)CC3)c2C#N)cc1F` [Example 246, (E)-3-(6-(((1-(3-Cyano-4-(4-cyano-3-fluorophenyl)-5-(3-hydroxy-4-morpholinophenyl)pyridin-2-yl)piperidin-4-yl)amino)methyl)pyridin-3-yl)-N-hydroxyacrylamide formate], for which the IC50 turned out to be 5.38 nM in test [1], 0.93 nM in test [2], 10.8 nM in test [3] and 14.3 nM in test [4].
For `COc1ccc(-c2cnc(N3CCC(NCc4ccc(/C=C/C(=O)NO)cc4)CC3)c(C#N)c2-c2cnc(C#N)nc2)cc1O` [Example 250, E)-3-(4-(((1-(3-Cyano-4-(2-cyanopyrimidin-5-yl)-5-(3-hydroxy-4-methoxyphenyl)pyridin-2-yl)piperidin-4-yl)amino)methyl) phenyl)-N-hydroxyacrylamide formate], in that order: 1.08 nM, 17 nM, 2.42 nM and 1.93 nM.
